As usually defined, the IC50 is the concentration needed to halve the response being measured.

In the test the target is T1, full-length beta-Catenin (Uniprot ID P35222) (Homo sapiens, UniProt P35222).
T1 construct: 10 nM full-length beta-Catenin (Uniprot ID P35222)
T1 sequence (P35222 1-781): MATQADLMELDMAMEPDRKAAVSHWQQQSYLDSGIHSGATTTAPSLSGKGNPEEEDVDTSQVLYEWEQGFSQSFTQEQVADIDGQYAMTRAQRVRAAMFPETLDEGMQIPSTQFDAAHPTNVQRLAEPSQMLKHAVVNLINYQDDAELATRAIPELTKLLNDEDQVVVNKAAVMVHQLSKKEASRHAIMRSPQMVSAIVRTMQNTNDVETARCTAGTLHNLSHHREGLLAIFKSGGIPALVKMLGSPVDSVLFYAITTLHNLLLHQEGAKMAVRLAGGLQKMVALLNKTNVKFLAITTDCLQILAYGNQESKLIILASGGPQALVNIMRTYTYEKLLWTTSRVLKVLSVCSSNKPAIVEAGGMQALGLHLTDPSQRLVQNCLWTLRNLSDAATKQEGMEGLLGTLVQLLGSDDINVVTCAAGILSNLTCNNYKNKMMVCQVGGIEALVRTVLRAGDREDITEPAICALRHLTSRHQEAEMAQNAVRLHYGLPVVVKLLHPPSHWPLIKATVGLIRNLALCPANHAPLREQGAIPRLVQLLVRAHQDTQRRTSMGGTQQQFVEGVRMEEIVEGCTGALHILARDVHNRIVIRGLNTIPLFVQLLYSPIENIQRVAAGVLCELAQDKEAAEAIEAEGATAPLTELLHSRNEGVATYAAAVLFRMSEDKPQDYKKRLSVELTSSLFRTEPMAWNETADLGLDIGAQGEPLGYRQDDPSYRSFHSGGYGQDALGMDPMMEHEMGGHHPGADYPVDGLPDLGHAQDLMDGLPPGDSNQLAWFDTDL
Kind of test: Fluorescence polarization IC50 (beta-catenin / 5FAM-TCF4 10-53 competition). The test is classed as binding. The conditions noted are these: fluorescence polarization; read-out: beta-Catenin FP IC50.

`CC(=O)N1CCC[C@]12CC=CCCCCC1(CCCCC=CCOC(=O)N3CC[C@@](C(=O)N[C@@H](Cc4ccccc4C(F)(F)F)C(=O)N[C@@H](Cc4csc5ccccc45)C(=O)N[C@@H](CCC(N)=O)C(N)=O)(C3)NC(=O)[C@H](CC(C)C)NC(=O)[C@H](Cc3ccccc3)NC(=O)[C@H](C)NC(=O)[C@H](C)NC(=O)[C@H](Cc3cccc(C(=O)O)c3)NC(=O)[C@H](CC(=O)O)NC1=O)NC(=O)[C@H](CC(C)(C)C)NC(=O)[C@H](CC(=O)O)NC2=O` (stereo partly drawn) [I-2505, Ac-PL3-Asp-Npg-B6-Asp-3COOHF-Ala-Ala-Phe-Leu-PyrS-2F3MeF-BztA-Gln-NH2]: the IC50 stood at 687 nM.

Consider `CC(=O)N1CCC[C@]12CC=CCCCCC1(CCCCC=CCOC(=O)N3CC[C@@](C(=O)N[C@@H](Cc4ccccc4C(F)(F)F)C(=O)N[C@@H](Cc4csc5ccccc45)C(=O)N[C@@H](C)C(N)=O)(C3)NC(=O)[C@H](CC(C)C)NC(=O)[C@H](Cc3ccccc3)NC(=O)[C@H](C)NC(=O)[C@H](CCC(N)=O)NC(=O)[C@H](Cc3cccc(C(=O)O)c3)NC(=O)[C@H](CC(=O)O)NC1=O)NC(=O)[C@H](CC(C)(C)C)NC(=O)[C@H](CC(=O)O)NC2=O` (stereo partly drawn) [I-2506, Ac-PL3-Asp-Npg-B6-Asp-3COOHF-Gln-Ala-Phe-Leu-PyrS-2F3MeF-BztA-Ala-NH2], for which the IC50 came to 332 nM. In the case of `CC(=O)N1CCC[C@]12CC=CCCCCC1(CCCCC=CCOC(=O)N3CC[C@@](C(=O)N[C@@H](Cc4ccccc4C(F)(F)F)C(=O)N[C@@H](Cc4csc5ccccc45)C(=O)N[C@@H](C)C(N)=O)(C3)NC(=O)[C@H](CC(C)C)NC(=O)[C@H](Cc3ccccc3)NC(=O)[C@H](C)NC(=O)[C@H](CCC(N)=O)NC(=O)[C@H](Cc3cccc(C(=O)O)c3)NC(=O)[C@H](CC(=O)O)NC1=O)NC(=O)[C@H](CC(C)(C)C)NC(=O)[C@H](CC(=O)O)NC2=O` (stereo partly drawn) [I-2507, Ac-PL3-Asp-Npg-B6-Asp-3COOHF-Gln-Ala-Phe-Leu-PyrS-2F3MeF-BztA-Ala-NH2] it was 168 nM; in that of `CC(=O)N1CCC[C@]12CC=CCCCCC1(CCCCC=CCCOC(=O)N3CC[C@@](C(=O)N[C@@H](Cc4ccccc4C(F)(F)F)C(=O)N[C@@H](Cc4csc5ccccc45)C(=O)N[C@@H](CCC(N)=O)C(N)=O)(C3)NC(=O)[C@H](CC(C)C)NC(=O)[C@H](Cc3ccccc3)NC(=O)[C@H](C)NC(=O)[C@H](C)NC(=O)[C@H](Cc3cccc(C(=O)O)c3)NC(=O)[C@H](CC(=O)O)NC1=O)NC(=O)[C@H](CC(C)(C)C)NC(=O)[C@H](CC(=O)O)NC2=O` (stereo partly drawn) [I-2509, Ac-PL3-Asp-Npg-B6-Asp-3COOHF-Ala-Ala-Phe-Leu-PyrS1-2F3MeF-BztA-Gln-NH2], 17 nM. In the case of `CC(=O)N1CCC[C@]12CC=CCCCCC1(CCCCC=CCCCOC(=O)N3CC[C@@](C(=O)N[C@@H](Cc4ccccc4C(F)(F)F)C(=O)N[C@@H](Cc4csc5ccccc45)C(=O)N[C@@H](CCC(N)=O)C(N)=O)(C3)NC(=O)[C@H](CC(C)C)NC(=O)[C@H](Cc3ccccc3)NC(=O)[C@H](C)NC(=O)[C@H](C)NC(=O)[C@H](Cc3cccc(C(=O)O)c3)NC(=O)[C@H](CC(=O)O)NC1=O)NC(=O)[C@H](CC(C)(C)C)NC(=O)[C@H](CC(=O)O)NC2=O` (stereo partly drawn) [I-2511, Ac-PL3-Asp-Npg-B6-Asp-3COOHF-Ala-Ala-Phe-Leu-PyrS2-2F3MeF-BztA-Gln-NH2] it was 566 nM; in that of `CC(=O)N1CCC[C@]12CC=CCCCCC1(CCCCC=CCCCOC(=O)N3CC[C@@](C(=O)N[C@@H](Cc4ccccc4C(F)(F)F)C(=O)N[C@@H](Cc4csc5ccccc45)C(=O)N[C@@H](CCC(N)=O)C(N)=O)(C3)NC(=O)[C@H](CC(C)C)NC(=O)[C@H](Cc3ccccc3)NC(=O)[C@H](C)NC(=O)[C@H](C)NC(=O)[C@H](Cc3cccc(C(=O)O)c3)NC(=O)[C@H](CC(=O)O)NC1=O)NC(=O)[C@H](CC(C)(C)C)NC(=O)[C@H](CC(=O)O)NC2=O` (stereo partly drawn) [I-2512, Ac-PL3-Asp-Npg-B6-Asp-3COOHF-Ala-Ala-Phe-Leu-PyrS2-2F3MeF-BztA-Gln-NH2], 245 nM; in that of `CC(=O)N1CCC[C@]12CC=CCCCCC1(CCCCC=CCCCOC(=O)N3CC[C@@](C(=O)N[C@@H](Cc4ccccc4C(F)(F)F)C(=O)N[C@@H](Cc4csc5ccccc45)C(=O)N[C@@H](CCC(N)=O)C(N)=O)(C3)NC(=O)[C@H](CC(C)C)NC(=O)[C@H](Cc3ccccc3)NC(=O)[C@H](C)NC(=O)[C@H](C)NC(=O)[C@H](Cc3cccc(C(=O)O)c3)NC(=O)[C@H](CC(=O)O)NC1=O)NC(=O)[C@H](CC(C)(C)C)NC(=O)[C@H](CC(=O)O)NC2=O` (stereo partly drawn) [I-2514, Ac-PL3-Asp-Npg-B6-Asp-3COOHF-Ala-Ala-Phe-Leu-PyrS2-2F3MeF-BztA-Gln-NH2], 74 nM.

For the molecule `CC(=O)N1CCC[C@]12CC=CCCCCC1(CCCCC=CCCCOC(=O)N3CC[C@@](C(=O)N[C@@H](Cc4ccccc4C(F)(F)F)C(=O)N[C@@H](Cc4csc5ccccc45)C(=O)N[C@@H](C)C(N)=O)(C3)NC(=O)[C@H](CC(C)C)NC(=O)[C@H](Cc3ccccc3)NC(=O)[C@H](C)NC(=O)[C@H](CCC(N)=O)NC(=O)[C@H](Cc3cccc(C(=O)O)c3)NC(=O)[C@H](CC(=O)O)NC1=O)NC(=O)[C@H](CC(C)(C)C)NC(=O)[C@H](CC(=O)O)NC2=O` (stereo partly drawn) [I-2516, Ac-PL3-Asp-Npg-B6-Asp-3COOHF-Gln-Ala-Phe-Leu-PyrS2-2F3MeF-BztA-Ala-NH2], the half-maximal inhibitory concentration (IC50) stood at 209 nM. With `CC(=O)N1CCC[C@]12CC=CCCCCC1(CCCCC=CCCOC(=O)N3CC[C@@](C(=O)N[C@@H](Cc4ccccc4C(F)(F)F)C(=O)N[C@@H](Cc4csc5ccccc45)C(=O)N[C@@H](C)C(N)=O)(C3)NC(=O)[C@H](CC(C)C)NC(=O)[C@H](Cc3ccccc3)NC(=O)[C@H](C)NC(=O)[C@H](CCC(N)=O)NC(=O)[C@H](Cc3cccc(C(=O)O)c3)NC(=O)[C@H](CC(=O)O)NC1=O)NC(=O)[C@H](CC(C)(C)C)NC(=O)[C@H](CC(=O)O)NC2=O` (stereo partly drawn) [I-2519, Ac-PL3-Asp-Npg-B6-Asp-3COOHF-Gln-Ala-Phe-Leu-PyrS1-2F3MeF-BztA-Ala-NH2] the figure was 94 nM. In the case of `CC(=O)N1CCC[C@]12CC=CCCCC1(CCCC=CCCCOC(=O)N3CC[C@@](C(=O)N[C@@H](Cc4ccccc4)C(=O)N[C@@H](Cc4csc5ccccc45)C(=O)N[C@@H](CC(=O)N4CCOCC4)C(N)=O)(C3)NC(=O)[C@H](CC(C)C)NC(=O)[C@H](Cc3ccccc3)NC(=O)[C@H](C)NC(=O)[C@H](CCCCNS(C)(=O)=O)NC(=O)[C@H](CCC(N)=O)NC(=O)[C@H](CC(=O)O)NC1=O)NC(=O)[C@H](CC1CCCCC1)NC(=O)[C@H](CC(N)=O)NC2=O` (stereo partly drawn) [I-2524, Ac-PL3-Asn-Cha-B5-Asp-Gln-[MeSO2]Lys-Ala-Phe-Leu-PyrS2-Phe-BztA-MorphAsn-NH2] it was 609 nM; in that of `CC(=O)N1CCC[C@]12CC=CCCCC1(CCCC=CCCCOC(=O)N3CC[C@@](C(=O)N[C@@H](Cc4ccccc4)C(=O)N[C@@H](Cc4csc5ccccc45)C(=O)N[C@@H](CC(=O)N4CCOCC4)C(N)=O)(C3)NC(=O)[C@H](CC(C)C)NC(=O)[C@H](Cc3ccccc3)NC(=O)[C@H](C)NC(=O)[C@H](CCCCNC(=O)C(F)(F)F)NC(=O)[C@H](CCC(N)=O)NC(=O)[C@H](CC(=O)O)NC1=O)NC(=O)[C@H](CC1CCCCC1)NC(=O)[C@H](CC(N)=O)NC2=O` (stereo partly drawn) [I-2525, Ac-PL3-Asn-Cha-B5-Asp-Gln-[CF3CO]Lys-Ala-Phe-Leu-PyrS2-Phe-BztA-MorphAsn-NH2], 4290 nM; in that of `CC(=O)N1CCC[C@]12CC=CCCCC1(CCCC=CCCCOC(=O)N3CC[C@@](C(=O)N[C@@H](Cc4ccccc4)C(=O)N[C@@H](Cc4csc5ccccc45)C(=O)N[C@@H](CC(=O)N4CCOCC4)C(N)=O)(C3)NC(=O)[C@H](CC(C)C)NC(=O)[C@H](Cc3ccccc3)NC(=O)[C@H](C)NC(=O)[C@H](CCCCNC(=O)CCN(C)C)NC(=O)[C@H](CCC(N)=O)NC(=O)[C@H](CC(=O)O)NC1=O)NC(=O)[C@H](CC1CCCCC1)NC(=O)[C@H](CC(N)=O)NC2=O` (stereo partly drawn) [I-2528, Ac-PL3-Asn-Cha-B5-Asp-Gln-[Me2Npr]Lys-Ala-Phe-Leu-PyrS2-Phe-BztA-MorphAsn-NH2], 610 nM. In the case of `CC(C)C[C@@H]1NC(=O)[C@H](Cc2ccccc2)NC(=O)[C@H](C)NC(=O)[C@H](C)NC(=O)[C@H](Cc2cccc(C(=O)O)c2)NC(=O)[C@H](CC(=O)O)NC(=O)C2(CCCCCCCCOC(=O)N3CC[C@@](C(=O)N[C@@H](Cc4ccccc4C(F)(F)F)C(=O)N[C@@H](Cc4csc5ccccc45)C(=O)N[C@@H](CCC(N)=O)C(N)=O)(C3)NC1=O)CCCCCC[C@@]13CCCN1C(=O)CCCCCC[C@H](NC(=O)[C@H](CC(=O)O)NC3=O)C(=O)N2` (stereo partly drawn) [I-2529, 5hexenyl-PL3-Asp-AllylGly-B5-Asp-3COOHF-Ala-Ala-Phe-Leu-PyrS2-2F3MeF-BztA-Gln-NH2], the IC50 was 153 nM. In the case of `CC(C)C[C@@H]1NC(=O)[C@H](Cc2ccccc2)NC(=O)[C@H](C)NC(=O)[C@H](C)NC(=O)[C@H](Cc2cccc(C(=O)O)c2)NC(=O)[C@H](CC(=O)O)NC(=O)C2(CCCCCCCCOC(=O)N3CC[C@@](C(=O)N[C@@H](Cc4ccccc4C(F)(F)F)C(=O)N[C@@H](Cc4csc5ccccc45)C(=O)N[C@@H](CCC(N)=O)C(N)=O)(C3)NC1=O)CCCCCC[C@@]13CCCN1C(=O)CCCCC[C@H](NC(=O)[C@H](CC(=O)O)NC3=O)C(=O)N2` (stereo partly drawn) [I-2530, 4pentenyl-PL3-Asp-AllylGly-B5-Asp-3COOHF-Ala-Ala-Phe-Leu-PyrS2-2F3MeF-BztA-Gln-NH2] it was 102 nM.

Source of the values: patent US20240116985A1, “STAPLED PEPTIDES AND METHODS THEREOF” (priority 2020, published 2024).
